Measured values from patent publication US20220031713A1, “METHODS OF TREATING MYELOPROLIFERATIVE DISORDERS” (Impact Biomedicines, Inc., priority 2018, published 2022).
Read-outs that look alike come from different tables or passages of the source.

Columns and labels:
[1] = tested on: graft-versus-host disease (GVHD); conditions: cited from earlier work
[2] = tested on: PD-L1 expression in lymphoma tumor cells; conditions: cited from earlier work
[3] = tested on: JAK2V617F; conditions: non-clinical models of MF; cited from earlier work
[4] = tested on: intermediate-1 with symptoms, intermediate-2 or high-risk MPN-associated myelofibrosis; conditions: cited from earlier work
[5] = tested on: cells expressing constitutively active JAK2; experiment: Apoptosis in cells expressing constitutively active JAK2; type: cell-based; conditions: cellular assays
[6] = tested on: JAK2V617F; conditions: MF patients; cited from earlier work
[7] = tested on: hematopoietic progenitors isolated from myeloproliferative neoplasm (MPN) patients; experiment: Erythroid colony formation of hematopoietic progenitors; type: cell-based, human
[8] = tested on: T cell development; conditions: non-clinical data; cited from earlier work
[9] = tested on: cellular proliferation driven by mutant JAK2 or mutant MPL; experiment: Cellular proliferation driven by mutant JAK2 or mutant MPL; type: cell-based; conditions: cellular assays
[10] = tested on: intermediate-2 or high-risk MF; conditions: cited from earlier work
[11] = tested on: JAK2 signaling; experiment: Cellular assay of JAK2 signaling; type: cell-based; conditions: cellular assays
[12] = tested on: circulating cytokines; conditions: MF patients not previously treated with JAK inhibitors; cited from earlier work
[13] = tested on: MF; conditions: week 24; previous ruxolitinib treatment; cited from earlier work
[14] = tested on: myelofibrosis; conditions: week 24, subgroup with prior ruxolitinib, cited from earlier work
[15] = tested on: intermediate or high-risk MPN-associated myelofibrosis (MF); conditions: at 24 weeks, COMFORT-I; cited from earlier work
[16] = tested on: myelofibrosis; conditions: cited from earlier work
[17] = tested on: intermediate or high-risk MPN-associated myelofibrosis (MF); conditions: cited from earlier work
[18] = tested on: PD-L1 expression in MPN myeloid cells; conditions: cited from earlier work
[19] = tested on: MPN-associated myelofibrosis; conditions: cited from earlier work
[20] = tested on: bone marrow fibrosis; conditions: at 24 months; cited from earlier work
[21] = patients previously treated with ruxolitinib
[22] = ruxolitinib therapy, compared with BAT

In the case of Cc1cnc(Nc2ccc(OCCN3CCCC3)cc2)nc1Nc1cccc(S(=O)(=O)NC(C)(C)C)c1 [Compound I, fedratinib], the “effect on GVHD” value ([1]; non-clinical data) is listed as “weak effect”, the “effect on PD-L1 expression” value [2] is listed as “modulate PD-L1 expression” and the JAK2V617F frequency [3] is listed as “decrease JAK2V617F frequency”. The “patients with at least 1 TEAE (all grades)” value ([4]; 97 patients) was 97 patients, the TEAE anemia ([4]; all grades) was 48.5% and the TEAE diarrhea ([4]; all grades) was 61.9%. The TEAE nausea ([4]; all grades) was 55.7%, the TEAE thrombocytopenia ([4]; all grades) was 26.8% and the TEAE vomiting ([4]; all grades) was 41.2%. The “Grade 3 or 4 anemia” value ([4]; in vivo) was “Thirty-eight and one-tenth”, the “Grade 3 or 4 thrombocytopenia” value ([4]; in vivo) was 21.6% and the “grade 5 hematologic TEAEs” value ([4]; in vivo) was “No grade 5 hematologic TEAEs were reported”. The “patients reporting Grade 3 or 4 TEAEs” value ([4]; in vivo) was 62.9%, the “overall spleen response rate (≥35% reduction from baseline in spleen volume to the End of Cycle 6)” value [4, 21] was 55.4% and the “subjects achieving a ≥50% reduction in TSS” value [4, 21] was 25.6%. For the same compound, the “apoptosis in cells expressing constitutively active JAK2” value [5] was “induces apoptosis”, the JAK2V617F frequency [6] was “decrease JAK2V617F frequency” and the “erythroid colony formation of hematopoietic progenitors” value [7] was “inhibits erythroid colony formation”. For the same compound, the “effect on T cell development” value [8] was “weak effect”, the “effect on cellular proliferation driven by mutant JAK2 or mutant MPL” value [9] was “inhibits” and the TEAE diarrhea ([10]; 400 mg daily, all grades) was 65.6%. For the same compound, the TEAE fatigue ([10]; 400 mg daily, all grades) was 15.6%, the TEAE nausea ([10]; 400 mg daily, all grades) was 63.5% and the TEAE peripheral edema ([10]; 400 mg daily, all grades) was 15.6%. For the same compound, the TEAE vomiting ([10]; 400 mg daily, all grades) was 41.7%, the “TEAE anemia (G3 and G4)” value ([10]; 400 mg daily) was 42.7% and the “response rate at Cycle 6 as recommended by IWG-MRT (regardless of confirmation)” value ([10]; 400 mg daily) was 46.9%. For the same compound, the “response rate per primary endpoint (≥35% reduction in spleen volume to End of Cycle 6, confirmed 4 weeks later by MRI)” value ([10]; 400 mg daily) was 36.5%, the “TEAEs leading to permanent treatment discontinuation” value ([10]; 400 mg) was 27.1% and the “subjects achieving a ≥50% reduction in TSS” value ([10]; 400 mg) was 36.3%. For the same compound, the “subjects reporting Grade 3 or 4 TEAEs” value ([10]; 400 mg) was 70.8%, the “treatment-emergent serious adverse events (SAEs)” value ([10]; 400 mg) was 38.5% and the “response rate at Cycle 6 as recommended by IWG-MRT (regardless of confirmation)” value ([10]; 500 mg daily) was 49.5%. The “response rate per primary endpoint (≥35% reduction in spleen volume to End of Cycle 6, confirmed 4 weeks later by MRI)” value ([10]; 500 mg daily) was 40.2%, the “TEAEs leading to permanent treatment discontinuation” value ([10]; 500 mg) was 36.1% and the “subjects achieving a ≥50% reduction in TSS” value ([10]; 500 mg) was 34.1%. For the same compound, the “subjects reporting Grade 3 or 4 TEAEs” value ([10]; 500 mg) was 78.4%, the “treatment-emergent serious adverse events (SAEs)” value ([10]; 500 mg) was 44.3% and the “median duration of response (≥35% reduction in spleen volume)” value ([10]; responders from both active groups (400-mg and 500-mg)) was 10.4 months. The “effect on JAK2 signaling” value [11] was “inhibits JAK2 signaling” and the “effect on circulating cytokines” value [12] was “modulate circulating cytokines”.
In the case of N#CCNC(=O)c1ccc(-c2ccnc(Nc3ccc(N4CCOCC4)cc3)n2)cc1 [momelotinib], the “subjects with spleen volume response of 35% or more” value (“subjects … of 35% or more” for short) [13] is listed as 7%.
For C1=C/COCc2cc(ccc2OCCN2CCCC2)Nc2nccc(n2)-c2cccc(c2)COC/1 [pacritinib], the “subjects … of 35% or more” value ([14]; 200 mg twice daily) is given as 13% and the “subjects … of 35% or more” value ([14]; 400 mg once daily) is given as 6%.
In the case of N#CC[C@H](C1CCCC1)n1cc(-c2ncnc3[nH]ccc23)cn1 [ruxolitinib, (3R)-3-cyclopentyl-3-[4-(7H-pyrrolo[2,3-d]pyrimidin-4-yl)pyrazol-1-yl]propanenitrile], the “proportion of subjects exhibiting a ≥35% reduction in spleen volume as measured by MRI” value [15] is listed as 41.9%, the “subjects with >50% improvement in MFSAF Total Symptom Score (TSS)” value [15] is listed as 45.9% and the “median survival of relapsed and refractory patients who discontinued ruxolitinib” value ([16]; after ruxolitinib discontinuation) is listed as 6 months. The patients remaining alive ([16]; median follow-up of 10 months from stopping ruxolitinib) was 34%, the “proportion of subjects exhibiting a ≥35% reduction in spleen volume as measured by MRI” value ([17]; at 48 weeks, COMFORT-II) was 28.5% and the “Kaplan-Meier estimated probability of survival” value ([17]; at 144 weeks, COMFORT-II 3-year follow-up) was 81%. The “effect on PD-L1 expression” value [18] was “modulate PD-L1 expression”, the “effect on graft-versus-host disease (GVHD)” value ([1]; preclinical and clinical data) was “suppressing graft-versus-host disease” and the “time after therapy initiation within which responses are typically observed” value ([19]; in vivo) was 3-6 months. For the same compound, the treatment-associated anemia [19, 22] was 40.4%, the treatment-associated thrombocytopenia [19, 22] was 44.5% and the “subjects with improvement in bone marrow fibrosis” value [20] was 15%.
